The values that follow come from patent US11826435B2, “Conduritol aziridine derivatives and uses thereof” (University of Saskatchewan, priority 2017, dated 2023).

The target of series [1] is Cerezyme, a recombinant form of GCase (Homo sapiens (Human), UniProt P04062, R534H). The note with it: cited from earlier work.
The target in series [2] is GCase (Homo sapiens (Human), UniProt P04062). The note with it: cited from earlier work; for ki/Ki previously reported: previously reported (ref 44).
Series [3] concerns the target Cerezyme (Recombinant GCase) (Homo sapiens (Human), UniProt P04062, R534H). Put plainly: Inactivation assay: residual Cerezyme activity with 2,4-DNP-β-Glc substrate. Type of series: biochemical. The conditions noted are these: 37° C., pH 5.5.
Procedure: Inactivation solutions contained a final concentration of 16.55 nM of Cerezyme® (Recombinant GCase) in 200 μL of Reaction Buffer (50 mM acetate, 0.2% v/v Triton X-100, 0.3% w/v sodium taurocholate, pH 5.5). […] These enzyme Reaction Buffers were brought to 37° C. and spiked with a corresponding inhibitor to make the final inhibitor concentration either 20 nM, 40 nM, 60 nM, 80 nM, 120 nM, 160 nM and 200 nM. Once the inhibitor was added this was considered time=0 minutes. Meanwhile a 96 well plate inside a Biotek Synergy 4 hybrid multi-mode reader at 37° C. was being incubated. In the wells of the plate were waiting a high concentration (3.2 mM) of 2,4-DNP-β-Glc substrate in 180 μL of Reaction Buffer. […] Once all the aliquots were added the solution in the wells was measured for absorbance at 400 nm for 8 minutes. […] Inactivation rates for varying inhibitor concentrations were calculated using GraphPad Prism software and Equation 2 (below). […]
Small aliquots of these reaction mixtures were withdrawn and diluted 20-fold in 96 well plates containing a final concentration of 4 mM of the substrate 2,4-DNP-β-D-Glc. […] Residual enzymatic activity at different time points and concentrations was monitored by quantifying the release of 2,4-DNP after 2,4-DNP-3-D-Glc cleavage by Cerezyme®. […]
Series [4] has as its target GCase in the presence of Saposin C (Homo sapiens (Human), UniProt P04062). Nature of the series: GCase inactivation rate in the presence of Saposin C. In kind it is biochemical. The note with it: in words.
The target in series [5] is GCase over GBA2 and GBA3 (Homo sapiens (Human), UniProt P04062). The note with it: in words; cited from earlier work.
The conditions of series [6]: in words; cited from earlier work.

GCase, sequence (P04062 40-536): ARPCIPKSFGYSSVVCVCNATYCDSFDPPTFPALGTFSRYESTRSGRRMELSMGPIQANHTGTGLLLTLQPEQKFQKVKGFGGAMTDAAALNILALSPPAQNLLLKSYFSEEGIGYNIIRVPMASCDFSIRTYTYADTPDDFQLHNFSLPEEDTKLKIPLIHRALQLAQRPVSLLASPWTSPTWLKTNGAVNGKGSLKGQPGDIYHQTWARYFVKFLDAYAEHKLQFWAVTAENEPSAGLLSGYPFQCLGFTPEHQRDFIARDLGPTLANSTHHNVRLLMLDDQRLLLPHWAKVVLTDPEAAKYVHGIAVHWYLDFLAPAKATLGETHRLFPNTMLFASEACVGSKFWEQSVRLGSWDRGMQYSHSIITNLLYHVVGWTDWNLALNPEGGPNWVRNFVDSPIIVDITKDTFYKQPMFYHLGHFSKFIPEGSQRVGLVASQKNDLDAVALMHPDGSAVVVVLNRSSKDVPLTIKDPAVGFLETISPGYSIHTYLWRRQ
Cerezyme (Recombinant GCase), sequence (P04062 40-536 R534H limits assumed): as the sequence (P04062 40-536) above, with R495H counted along it
GCase over GBA2 and GBA3, sequence (P04062 40-536): as the sequence (P04062 40-536) above
GCase in the presence of Saposin C, sequence (P04062 40-536): as above
Cerezyme, a recombinant form of GCase, sequence (P04062 40-536 R534H limits assumed): as the sequence (P04062 40-536) above, with R495H counted along it

Consider `O=[N+]([O-])c1ccc(OC2O[C@H](CO)[C@@H](O)[C@H](O)[C@H]2F)c([N+](=O)[O-])c1` (stereo partly drawn) [Compound 1.1, β-2,4-dinitrophenyl-fluorodeoxyglucose], for which, in series [1], the t½ of glucosyl-enzyme is > 21.67 h.
Regarding hexyl conduritol aziridine, the ki/Ki previously reported in series [2] is 10700 ± 500 M⁻¹ s⁻¹.
Consider `O[C@H]1[C@H](O)[C@@H](O)[C@H]2[C@@H]([C@@H]1O)N2CCCCC#Cc1ccc(F)cc1` (mixture of isomers) [Compound 34, (±)-(1R,2S,3R,4R,5S,6S)-7-(6-(4-fluorophenyl)hex-5-yn-1-yl)-7-azabicyclo[4.1.0]heptane-2,3,4,5-tetraol], for which, in series [3], the ki/Ki is 85000 ± 1670 M⁻¹ s⁻¹.
Take butyl conduritol aziridine: the ki/Ki previously reported in series [2] was 63.3 ± 1.7 M⁻¹ s⁻¹.
In the case of “N-octyl conduritol aziridine [Compound 1.7]”, the ki/Ki in series [3] is 78300 ± 4170 M⁻¹ s⁻¹; in series [2] (inhibition of GCase, reported data), 25.0 μM^−1/min^−1. Also, in series [4], the “inactivation rates towards GCase with Saposin C” value was “enhanced”. For the same compound, the ki/Ki previously reported in series [2] is 61170 ± 1170 M⁻¹ s⁻¹. Also, the ki in series [2] (rate constant of inactivation of GCase, reported data) was 0.120 min⁻¹. For the same compound, the “selectivity for GCase over GBA2 and GBA3” value in series [5] is “selective inhibition of GCase over GBA2 and GBA3”. Besides, in series [6], the cell permeability entry is “cell permeable”.
